Assay results reported in PubChem BioAssay AID2060907 (Molecular Pharmacology Branch, DTP, NCI, 2025).

System: 388556-164-R-J1-PDC complex spheroid viability
Assay: Anticancer human tumor 388556-164-R-J1-PDC patient-derived colon adenocarcinoma cell line growth inhibition [RAS]
Settings: for IC50: curve of first compound; for viability, T/C: stronger effect = lower value
Source text: RAS pathway inhibitors in Combinations in Complex Spheroids
A high-throughput screen of multi-cell type tumor spheroids was designed to identify active combinations of RAS pathway inhibitors and targeted small molecules. Complex spheroids include a stromal component modeled by human endothelial cells (HUVEC) and fibroblasts modeled by human mesenchymal stem cells (MSCs). The concentration ranges selected for each drug and investigational agent were based upon clinically achievable concentrations if the clinical Cmax of the agent was known.
Compounds. The drugs and investigational agents: abemaciclib (NSC768073), cobimetinib (NSC768068), divarasib (GDC6063, NSC841802), docetaxel (NSC628503), GDC-1971 (RLY-1971, NSC841576), gemcitabine (NSC613327), inavolisib (NSC800729), ipatasertib (NSC767898), KB-0742 (NSC834161), MRTX-1133 (NSC836407), osimertinib (NSC779217), RMC-4630 (NSC839698), RMC-6236 (NSC851965), RMC-6291 (NSC852671), Ro-3306 (NSC812927), sapanisertib (NSC764658), SN-38 (NSC673596), staurosporine (NSC755774), SY5609 (NSC837396), and tovorafenib (DAY101, NSC766906), were obtained from the National Cancer Institute (NCI) Developmental Therapeutics Program Chemical Repository. The FDA-approved anticancer drug set is available from the NCI Developmental Therapeutics Program. […] The stock solutions were prepared in dimethyl sulfoxide (DMSO, Sigma-Aldrich, St. Louis, MO, cat. D2650) at 800-fold the tested concentration and stored at -70 degrees C prior to their use. All drugs and investigational agents were tested over a range starting from a high concentration at or near the clinical Cmax and decreasing in half-log increments. If the clinical Cmax for an agent had not been determined, the highest concentration tested was 10 microM.
Cell Culture. All cells were maintained in an incubator at 37 degrees C and 5% CO2 with 95% humidity. The PDC lines were cultured according to standard operating procedures established by the NCI PDMR. All PDCs were thawed and cultured in Matrigel-coated flasks prepared with a working solution of 1X Ham's F-12 nutrient mix, without supplementation (Invitrogen, Waltham, MA, cat. 11765054), 100 U/mL penicillin-streptomycin (Invitrogen, cat. 15140122), and 2.5% Matrigel (Corning Inc., Corning, NY, cat. 354248) for the first three passages. The 362531-283-R-J2-PDC and 782815-120-R-J1-PDC lines were cultured in 6C/Colon 1B media, which includes advanced DMEM/F-12 (Thermo Fisher Scientific, cat. 12634028), 10 mM HEPES (Thermo Fisher Scientific, cat. 15630080), 1X GlutaMAX supplement (Thermo Fisher Scientific, cat. 35050061), 0.1 mg/mL primocin (InvivoGen, San Diego, CA, cat. ant-pm-2), 10% defined fetal bovine serum, heat inactivated (HyClone Laboratories Inc., Logan, UT, cat. SH30070.03HI), 50% L-WRN conditioned media (ATCC, cat. CRL-3276), 1.25 mM N-Acetyl-L-cysteine (Sigma-Aldrich, cat. A9165), 10 mM nicotinamide (Sigma-Aldrich, cat. N0636), 1X B-27 supplement (Thermo Fisher Scientific, cat. 17504044), 1X N-2 supplement (Thermo Fisher Scientific, cat. 17502048), 50 ng/mL human EGF (Thermo Fisher Scientific, cat. PHG0311), and 10 microM Y-27632 dihydrochloride (Tocris Bioscience, cat. 1254). The K12877-001-R-J1-PDC line was cultured in 6I media, which includes all 6C/Colon 1B media plus 10 ng/mL human FGF-10 (PeproTech, cat. 100-26), 1 ng/mL human FGF-2 (PeproTech, cat. 100-18B), 1 µM prostaglandin E2 (Tocris Bioscience, cat. 2296), […] hydrocortisone (Sigma-Aldrich, cat. H4001), and […] bovine insulin (Sigma-Aldrich, cat. I6634). The K86415-001-R-J1-PDC line was cultured in 6D media, which includes all 6C/Colon 1B media components minus the L-WRN conditioned media. The 485176-168-R4-J1-PDC was cultured in PANC media, which includes all 6C/Colon 1B media plus 100 ng/mL human FGF-10 (PeproTech, cat. 100-26), 500 nM SB-431542 (Selleckchem, cat. S1067), and 10 nM gastrin (Tocris Bioscience, cat. 3006). […]

[1] = second compound 0.0316 µM, first compound 0.0316 µM
[2] = second compound 0.0316 µM, first compound 0.1 µM
[3] = second compound 0.0316 µM, first compound 0.316 µM
[4] = second compound 0.0316 µM, first compound 1 µM
[5] = second compound 0.0316 µM, first compound 3.16 µM
[6] = second compound 0.0316 µM, first compound 10 µM
[7] = second compound 0.1 µM, first compound 0.0316 µM
[8] = second compound 0.1 µM, first compound 0.1 µM
[9] = second compound 0.1 µM, first compound 0.316 µM
[10] = second compound 0.1 µM, first compound 1 µM
[11] = second compound 0.1 µM, first compound 3.16 µM
[12] = second compound 0.1 µM, first compound 10 µM
[13] = second compound 0.316 µM, first compound 0.0316 µM
[14] = second compound 0.316 µM, first compound 0.1 µM
[15] = second compound 0.316 µM, first compound 0.316 µM
[16] = second compound 0.316 µM, first compound 1 µM
[17] = second compound 0.316 µM, first compound 3.16 µM
[18] = second compound 0.316 µM, first compound 10 µM
[19] = second compound 1 µM, first compound 0.0316 µM
[20] = second compound 1 µM, first compound 0.1 µM
[21] = second compound 1 µM, first compound 0.316 µM
[22] = second compound 1 µM, first compound 1 µM
[23] = second compound 1 µM, first compound 3.16 µM
[24] = second compound 1 µM, first compound 10 µM
[25] = second compound 3.16 µM, first compound 0.0316 µM
[26] = second compound 3.16 µM, first compound 0.1 µM
[27] = second compound 3.16 µM, first compound 0.316 µM
[28] = second compound 3.16 µM, first compound 1 µM
[29] = second compound 3.16 µM, first compound 3.16 µM
[30] = second compound 3.16 µM, first compound 10 µM
[31] = second compound 10 µM, first compound 0.0316 µM
[32] = second compound 10 µM, first compound 0.1 µM
[33] = second compound 10 µM, first compound 0.316 µM
[34] = second compound 10 µM, first compound 1 µM
[35] = second compound 10 µM, first compound 3.16 µM
[36] = second compound 10 µM, first compound 10 µM
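Further: spheroids exposed to compound for 7 days before readout.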
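Wherever viability, T/C is given: 100% = DMSO vehicle control luminescence.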

Compound `CC1(O)CCCC1n1c(=O)c(C(F)F)cc2cnc(NC3CCN(S(C)(=O)=O)CC3)nc21` (stereo unspecified) + C#Cc1c(F)ccc2cc(O)cc(-c3ncc4c(N5CC6CCC(C5)N6)nc(OCC56CCCN5CC(F)C6)nc4c3F)c12 has an IC50 (second compound 0.0316 µM) of over 10 µM, an IC50 (second compound 0.1 µM) of over 10 µM and an IC50 (second compound 0.316 µM) of over 10 µM. The IC50 (second compound 1 µM) was 9.42 µM, the IC50 (second compound 3.16 µM) was 8.92 µM and the IC50 (second compound 10 µM) was 5.28 µM. It also gave a viability, T/C [1] of 99.9%, a viability, T/C [2] of 101% and a viability, T/C [3] of 97.3%. It also gave a viability, T/C [4] of 108%, a viability, T/C [5] of 111% and a viability, T/C [6] of 76.7%. It also gave a viability, T/C [7] of 108%, a viability, T/C [8] of 103% and a viability, T/C [9] of 99.4%. The viability, T/C [10] was 97.3%, the viability, T/C [11] was 104% and the viability, T/C [12] was 77.2%. It also gave a viability, T/C [13] of 98.5%, a viability, T/C [14] of 108% and a viability, T/C [15] of 89.4%. For the same compound, the viability, T/C [16] was 107%, the viability, T/C [17] was 112% and the viability, T/C [18] was 62.4%. It also gave a viability, T/C [19] of 92.5%, a viability, T/C [20] of 99.1% and a viability, T/C [21] of 77.4%. For the same compound, the viability, T/C [22] was 94.8%, the viability, T/C [23] was 97.4% and the viability, T/C [24] was 47.6%. The viability, T/C [25] was 86.2%, the viability, T/C [26] was 78.6% and the viability, T/C [27] was 78.9%. For the same compound, the viability, T/C [28] was 82.1%, the viability, T/C [29] was 87.9% and the viability, T/C [30] was 46.6%. It also gave a viability, T/C [31] of 69.8%, a viability, T/C [32] of 72.6% and a viability, T/C [33] of 74.8%. The viability, T/C [34] was 76.2%, the viability, T/C [35] was 56.3% and the viability, T/C [36] was 42.1%.

With `CCN1CCN(Cc2ccc(Nc3ncc(F)c(-c4cc(F)c5nc(C)n(C(C)C)c5c4)n3)nc2)CC1` + C#Cc1c(F)ccc2cc(O)cc(-c3ncc4c(N5CC6CCC(C5)N6)nc(OCC56CCCN5CC(F)C6)nc4c3F)c12 the IC50 (second compound 0.0316 µM) was over 1 µM, the IC50 (second compound 0.1 µM) was over 1 µM and the IC50 (second compound 0.316 µM) was over 1 µM. The IC50 (second compound 1 µM) was over 1 µM, the IC50 (second compound 3.16 µM) was over 1 µM and the IC50 (second compound 10 µM) was 0.208 µM. It also gave a viability, T/C (second compound 0.0316 µM, first compound 0.00316 µM) of 106%, a viability, T/C (second compound 0.0316 µM, first compound 0.01 µM) of 106% and a viability, T/C [1] of 106%. The viability, T/C [2] was 103%, the viability, T/C [3] was 92.3% and the viability, T/C [4] was 103%. It also gave a viability, T/C (second compound 0.1 µM, first compound 0.00316 µM) of 110%, a viability, T/C (second compound 0.1 µM, first compound 0.01 µM) of 100% and a viability, T/C [7] of 94.8%. For the same compound, the viability, T/C [8] was 89.2%, the viability, T/C [9] was 91.6% and the viability, T/C [10] was 99.5%. It also gave a viability, T/C (second compound 0.316 µM, first compound 0.00316 µM) of 100%, a viability, T/C (second compound 0.316 µM, first compound 0.01 µM) of 99.2% and a viability, T/C [13] of 81.1%. For the same compound, the viability, T/C [14] was 88%, the viability, T/C [15] was 93.3% and the viability, T/C [16] was 77.4%. For the same compound, the viability, T/C (second compound 1 µM, first compound 0.00316 µM) was 92.5%, the viability, T/C (second compound 1 µM, first compound 0.01 µM) was 96.3% and the viability, T/C [19] was 73.2%. The viability, T/C [20] was 82.5%, the viability, T/C [21] was 85.6% and the viability, T/C [22] was 61.6%. For the same compound, the viability, T/C (second compound 3.16 µM, first compound 0.00316 µM) was 78.3%, the viability, T/C (second compound 3.16 µM, first compound 0.01 µM) was 73.9% and the viability, T/C [25] was 76.3%. For the same compound, the viability, T/C [26] was 74.3%, the viability, T/C [27] was 71% and the viability, T/C [28] was 54.9%. For the same compound, the viability, T/C (second compound 10 µM, first compound 0.00316 µM) was 76.8%, the viability, T/C (second compound 10 µM, first compound 0.01 µM) was 67.8% and the viability, T/C [31] was 72.7%. For the same compound, the viability, T/C [32] was 57.7%, the viability, T/C [33] was 45.5% and the viability, T/C [34] was 37.4%.

`C[C@@H](NC(=O)c1ncnc(N)c1Cl)c1ncc(C(=O)Nc2cc(C(F)(F)F)c(Cl)cn2)s1` + C#Cc1c(F)ccc2cc(O)cc(-c3ncc4c(N5CC6CCC(C5)N6)nc(OCC56CCCN5CC(F)C6)nc4c3F)c12 showed an IC50 (second compound 0.0316 µM) of over 10 µM, an IC50 (second compound 0.1 µM) of over 10 µM and an IC50 (second compound 0.316 µM) of over 10 µM. For the same compound, the IC50 (second compound 1 µM) was over 10 µM, the IC50 (second compound 3.16 µM) was over 10 µM and the IC50 (second compound 10 µM) was over 10 µM. The viability, T/C [1] was 112%, the viability, T/C [2] was 124% and the viability, T/C [3] was 117%. It also gave a viability, T/C [4] of 116%, a viability, T/C [5] of 116% and a viability, T/C [6] of 111%. The viability, T/C [7] was 114%, the viability, T/C [8] was 112% and the viability, T/C [9] was 120%. The viability, T/C [10] was 113%, the viability, T/C [11] was 122% and the viability, T/C [12] was 108%. For the same compound, the viability, T/C [13] was 113%, the viability, T/C [14] was 115% and the viability, T/C [15] was 101%. For the same compound, the viability, T/C [16] was 117%, the viability, T/C [17] was 112% and the viability, T/C [18] was 77.1%. It also gave a viability, T/C [19] of 105%, a viability, T/C [20] of 104% and a viability, T/C [21] of 98.2%. The viability, T/C [22] was 111%, the viability, T/C [23] was 108% and the viability, T/C [24] was 79.2%. The viability, T/C [25] was 103%, the viability, T/C [26] was 84% and the viability, T/C [27] was 84%. The viability, T/C [28] was 105%, the viability, T/C [29] was 96.5% and the viability, T/C [30] was 70%. It also gave a viability, T/C [31] of 74%, a viability, T/C [32] of 80.4% and a viability, T/C [33] of 72.8%. For the same compound, the viability, T/C [34] was 96%, the viability, T/C [35] was 63.9% and the viability, T/C [36] was 74.2%.
